Our source for the Solubility values is patent publication US20170107407A1, “ADHESIVE COMPOSITION AND POLARIZING PLATE COMPRISING SAME” (DONGWOO FINE-CHEM CO., LTD., priority 2014, published 2017).

The nature of this data set: Evaluation of solubility in methyl ethyl ketone. The following applies: 1 g compound in 100 g methyl ethyl ketone, shaken 1 hour, left 24 hours at room temperature, visual.
Experimental: Each compound (1 g) listed in Table 1 and methyl ethyl ketone (MEK, 100 g) were added to a 250 ml bottle and covered with a cap to inhibit the volatilization of the solvent.
In the case of `CCOCCOCCOCC(=O)[O-].[Li+]` [Formula A], the Solubility result is reported as “∘”.

For `CCOCCOCCOCC(=O)[O-].[Na+]` [Formula B], the Solubility entry is listed as “∘”.

Turning to `CCCCOCCOCC(=O)[O-].[Na+]` [Formula C], the Solubility entry is “∘”.
